# Measured values from publication PMC11251168, “Effect of ABCB1 most frequent polymorphisms on the accumulation of bictegravir in recombinant HEK293 cell lines” (Scientific Reports, 2024).
# Where a name gives a salt, the structure may show the parent alone.
# Tests used:
# [1] = system: ABCB1 (HEKWT, HEK1199A, HEKCGT, HEKTTT, HEKcontrol); assay: Model functionality assay: Rhodamine123 intracellular fluorescence with or without zosuquidar; type: cell-based, human; details: Rh123 5 μM, 90 min
# Procedure: 0.05 × 10^6 cells were seeded on poly-l-lysine coated 96-well plates and incubated overnight. The next day, Rh123 and zosuquidar dilutions were prepared from a stock solution. Cells were incubated for 90 min at 37 °C in the presence of Rh123 at 5 μM. The effect of ABCB1 inhibition was assessed by preincubation of the cells for 15 min with zosuquidar at a concentration of 0.2 μM. After incubation with Rh123, the supernatants were discarded. The cells were washed two times with ice-cold PBS. Sterile water was then added and detachment and lysis were performed through scratching of the well’s surface followed by sonication. Finally, fluorescence of Rh123 was analyzed by an iD3 Spectramax (Molecular Devices) fluorometer (c.1199G > A model validation) or a M3 Spectramax (Molecular Devices) fluorometer (haplotype model validation); excitation wavelength was set at 485 nm and emission at 530 nm. The solution was then used for protein quantification for results normalization.
# Statistical analyses were carried out using GraphPad Prism version 9.5.1 for Mac OS X (GraphPad Software). For the functional assays, protein normalized intracellular fluorescences were compared after log-transformation using the natural logarithm (Ln), when required. Comparison was performed using a two-way ANOVA (α = 0.05) followed by a post-hoc analysis testing the effect of the inhibitor, with Bonferroni correction for multiple testing. For the intracellular bictegravir accumulation experiments, triplicates were performed during each experiment, and each experiment was performed thrice. For each experiment, protein normalized bictegravir intracellular concentrations were reported as fold-change of the mean of the protein normalized bictegravir intracellular concentration observed at the lowest bictegravir exposition concentration for HEKcontrol during the same experiment. Fold-change results from the three biological replicates were pooled and are shown on Figs. 3 and 4. Statistical analysis were performed on Ln transformed data that were pooled using the same principle as described here above. […]
# [2] = biological target: T1, ABCB1 wild-type 1199G-1236C-2677G-3435C (Homo sapiens, UniProt P08183, S893A); assay: Intracellular bictegravir accumulation in HEK293 cells overexpressing wild-type ABCB1 (HEKWT); type: in vitro ADME; details: 2 h incubation, 0.25-5 mg/l
# T1 construct: expressed in transfected cells; host or cells: HEK293 (ATCC), pcDNA3.1 plasmid, G418 selection
# Description: (§1) The generation and characterization of recombinant cell lines have been described in previous work conducted by our lab[26],[42]. Briefly, human embryonic kidney (HEK293) cells were purchased from American Type Culture Collection and transfected with plasmids carrying either wild-type ABCB1 1199G-1236C-2677G-3435C (thereafter named HEKWT) or several ABCB1 variant combinations obtained using site-directed mutagenesis, 1199A-1236C-2677G-3435C (thereafter named HEK1199A), 1199G-1236C-2677G-3435T (thereafter named HEKCGT) and 1199G-1236T-2677T-3435T (thereafter named HEKTTT); or an empty vector (thereafter named HEKcontrol). […] This model has previously been extensively characterized using flow cytometry, Western blot, and fluorescence microscopy, and validated using reference substrates and inhibitors of ABCB1[26],[42]. […]
# (§2) 0.7 × 10^6 cells were seeded on poly-l-lysine-coated 12-well plates and incubated overnight. […] Cell suspensions were centrifugated for 10 min at 10,500×g, 4 °C and 100 μl of the supernatant was transferred to a vial for bictegravir liquid chromatography-tandem mass spectrometry (LC–MS/MS) quantification. […] This mixed solution was used for protein quantification for results normalization.
# (§3) Bictegravir intracellular concentrations were determined using an adapted version of a previously published LC–MS/MS method on a Xevo TQS-micro tandem quadrupole mass spectrometer (Waters)[46]. […]
# [3] = biological target: T2, ABCB1 1199A-1236C-2677G-3435C (Homo sapiens, UniProt P08183, S400N/S893A); assay: Intracellular bictegravir accumulation in HEK293 cells overexpressing ABCB1 1199A variant (HEK1199A); type: in vitro ADME; details: 2 h incubation, 0.25-5 mg/l, Fig. 3
# T2 construct: expressed in transfected cells; host or cells: HEK293 (ATCC), pcDNA3.1 plasmid, G418 selection
# Description: as §1, §2, §3
# [4] = biological target: T3, ABCB1 1199G-1236C-2677G-3435T (Homo sapiens, UniProt P08183, S893A); assay: Intracellular bictegravir accumulation in HEK293 cells overexpressing ABCB1 CGT haplotype (HEKCGT); type: in vitro ADME; details: 2 h incubation, 0.25-5 mg/l; Fig. 4
# T3 construct: expressed in transfected cells; host or cells: HEK293 (ATCC), pcDNA3.1 plasmid, G418 selection
# Description: as §1, §2, §3
# [5] = biological target: T4, ABCB1 1199G-1236T-2677T-3435T (Homo sapiens, UniProt P08183); assay: Intracellular bictegravir accumulation in HEK293 cells overexpressing ABCB1 TTT haplotype (HEKTTT); type: in vitro ADME; details: 2 h incubation, 0.25-5 mg/l; Fig. 4
# T4 construct: expressed in transfected cells; host or cells: HEK293 (ATCC), pcDNA3.1 plasmid, G418 selection
# Description: (§4) The generation and characterization of recombinant cell lines have been described in previous work conducted by our lab[26],[42]. Briefly, human embryonic kidney (HEK293) cells were purchased from American Type Culture Collection and transfected with plasmids carrying either wild-type ABCB1 1199G-1236C-2677G-3435C (thereafter named HEKWT) or several ABCB1 variant combinations obtained using site-directed mutagenesis, 1199A-1236C-2677G-3435C (thereafter named HEK1199A), 1199G-1236C-2677G-3435T (thereafter named HEKCGT) and 1199G-1236T-2677T-3435T (thereafter named HEKTTT); or an empty vector (thereafter named HEKcontrol). HEKCGT was selected, in addition to HEKWT (carrying the CGC haplotype) and HEKTTT, to test the potential impact of c.3435C > T variant. HEK293 cells feature low endogenous levels of expression of ABCB1, ensuring that ABCB1 expression originates almost exclusively from the transfection process. This model has previously been extensively characterized using flow cytometry, Western blot, and fluorescence microscopy, and validated using reference substrates and inhibitors of ABCB1[26],[42]. As the same cells were used, only flow cytometry and functional tests using reference substrates and inhibitors were used to re-characterize them.
# as §2
# (§5) Bictegravir intracellular concentrations were determined using an adapted version of a previously published LC–MS/MS method on a Xevo TQS-micro tandem quadrupole mass spectrometer (Waters)[46]. […] The following ion transitions were monitored: 450.1 > 289.1 for bictegravir and 453.2 > 289.2 for bictegravir-15N, d2.
# (§6) Total proteins were quantified in pellets using the BCA kit (Thermo Fisher Scientific) according to the manufacturer’s instructions. […]
# [6] = system: ABCB1 1199G-1236T-2677T-3435T; assay: as above; type: in vitro ADME, human; details: 2 h incubation, 0.25-5 mg/l; Fig. 4
# Description: as §4, §2, §5, §6
# [7] = biological target: T5, ABCB1 (wild-type, HEK1199G cells; HEKcontrol cells) (Homo sapiens, UniProt P08183, S893A); assay: Intracellular bictegravir accumulation with or without the ABCB1 inhibitor zosuquidar (Supplementary Fig. 2); type: in vitro ADME; details: bictegravir 2500 ng/mL, 120 min, zosuquidar 0.2 μM preincubation 15 min
# T5 construct: expressed in transfected cells; host or cells: HEK293 (ATCC), pcDNA3.1 plasmid, G418 selection
# Procedure: 0.7x10^6 cells were seeded on poly-l-lysine-coated 12-well plates and incubated overnight. The next day, bictegravir and zosuquidar dilutions were prepared from a stock solution. Cells were incubated for 120 minutes at 37 °C (5% CO2) in the presence of bictegravir at 2500 ng/mL. The effect of ABCB1 inhibition was assessed by preincubation of the cells for 15 minutes with zosuquidar at a concentration of 0.2 μM. Subsequently, plates were then centrifuged for 3 min at 4 °C, and maintained on ice throughout the experiment to block drug efflux. Cells were washed twice with 1 mL […]
# Drug extraction was then performed as described in the Manuscript, in the Methods section describing Intracellular bictegravir accumulation experiments. Drug quantification and protein quantification were performed as described in the dedicated Methods sections.
# Reported statistical analysis: ANOVA-2 with post-hoc Bonferroni correction test, performed on log- […]
# (1 picture or pasted object on this page, not shown here)
# [8] = parameters: method as in PMID 36701274; details: cited from earlier work
# [9] = parameters: method as in PMID 36701274; details: cited from earlier work; remark: listed apart in the source
# ABCB1 = system: ABCB1; parameters: method as in PMID 36701274; details: ABCB1-overexpressing MDCK II transfected cells compared with non-transfected cells; cited from earlier work
# [10] = parameters: method as in PMID 36701274; details: thought to be mainly due to passive diffusion; cited from earlier work
# [11] = parameters: method as in PMID 32868324, PMID 32199329; details: cited from earlier work
# [12] = parameters: method as in PMID 32868324, PMID 32199329; details: cited from earlier work; remark: listed apart in the source
# [13] = system: human peripheral blood mononuclear cells; parameters: method as in PMID 36806669; details: cited from earlier work
# [14] = system: ABCB1 c.1199G > A variant; details: cited from earlier work
# PBMCs = assay: Preliminary clinical pharmacokinetic assessments of intracellular accumulation in PBMCs; type: in vivo
# [15] = system: ABCB1 c.1236C > T, c.2677G > T and c.3435C > T variants; details: cited from earlier work
# [16] = zosuquidar 0.2 μM, 15 min preincubation
# T2 sequence (P08183 whole entry S400N/S893A): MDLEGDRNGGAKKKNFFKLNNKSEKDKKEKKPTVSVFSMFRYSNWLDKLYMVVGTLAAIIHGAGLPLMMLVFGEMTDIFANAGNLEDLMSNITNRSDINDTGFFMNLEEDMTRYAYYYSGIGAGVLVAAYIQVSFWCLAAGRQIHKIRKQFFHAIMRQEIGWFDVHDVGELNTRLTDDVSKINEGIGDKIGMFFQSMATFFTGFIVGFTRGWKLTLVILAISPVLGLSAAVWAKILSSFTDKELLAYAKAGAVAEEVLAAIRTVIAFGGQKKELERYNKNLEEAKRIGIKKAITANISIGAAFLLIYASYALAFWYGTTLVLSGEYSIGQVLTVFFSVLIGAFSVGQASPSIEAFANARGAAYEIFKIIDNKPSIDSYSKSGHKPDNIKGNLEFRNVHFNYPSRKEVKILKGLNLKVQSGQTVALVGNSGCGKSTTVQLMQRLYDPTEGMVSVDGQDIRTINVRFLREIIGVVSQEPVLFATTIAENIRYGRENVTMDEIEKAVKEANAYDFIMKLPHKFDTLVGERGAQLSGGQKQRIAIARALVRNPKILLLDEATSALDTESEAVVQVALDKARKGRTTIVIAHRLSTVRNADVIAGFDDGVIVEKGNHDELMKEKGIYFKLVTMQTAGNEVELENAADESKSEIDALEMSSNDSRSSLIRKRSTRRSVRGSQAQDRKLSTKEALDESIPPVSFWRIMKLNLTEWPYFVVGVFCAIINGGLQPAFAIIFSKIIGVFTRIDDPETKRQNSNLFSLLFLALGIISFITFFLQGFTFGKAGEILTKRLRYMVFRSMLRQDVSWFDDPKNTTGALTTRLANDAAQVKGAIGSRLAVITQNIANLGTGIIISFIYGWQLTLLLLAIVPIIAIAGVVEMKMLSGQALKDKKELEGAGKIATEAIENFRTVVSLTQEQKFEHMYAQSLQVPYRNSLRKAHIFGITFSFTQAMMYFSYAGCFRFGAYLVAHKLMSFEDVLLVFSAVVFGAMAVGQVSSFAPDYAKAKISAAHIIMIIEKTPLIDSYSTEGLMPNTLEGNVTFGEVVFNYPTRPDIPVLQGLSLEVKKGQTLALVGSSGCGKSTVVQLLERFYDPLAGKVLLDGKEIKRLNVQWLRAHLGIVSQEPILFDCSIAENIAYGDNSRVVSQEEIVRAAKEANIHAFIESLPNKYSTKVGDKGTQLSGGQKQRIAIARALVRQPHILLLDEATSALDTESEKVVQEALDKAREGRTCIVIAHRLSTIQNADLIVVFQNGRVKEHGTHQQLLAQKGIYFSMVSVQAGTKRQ
# T1 sequence (P08183 whole entry S893A): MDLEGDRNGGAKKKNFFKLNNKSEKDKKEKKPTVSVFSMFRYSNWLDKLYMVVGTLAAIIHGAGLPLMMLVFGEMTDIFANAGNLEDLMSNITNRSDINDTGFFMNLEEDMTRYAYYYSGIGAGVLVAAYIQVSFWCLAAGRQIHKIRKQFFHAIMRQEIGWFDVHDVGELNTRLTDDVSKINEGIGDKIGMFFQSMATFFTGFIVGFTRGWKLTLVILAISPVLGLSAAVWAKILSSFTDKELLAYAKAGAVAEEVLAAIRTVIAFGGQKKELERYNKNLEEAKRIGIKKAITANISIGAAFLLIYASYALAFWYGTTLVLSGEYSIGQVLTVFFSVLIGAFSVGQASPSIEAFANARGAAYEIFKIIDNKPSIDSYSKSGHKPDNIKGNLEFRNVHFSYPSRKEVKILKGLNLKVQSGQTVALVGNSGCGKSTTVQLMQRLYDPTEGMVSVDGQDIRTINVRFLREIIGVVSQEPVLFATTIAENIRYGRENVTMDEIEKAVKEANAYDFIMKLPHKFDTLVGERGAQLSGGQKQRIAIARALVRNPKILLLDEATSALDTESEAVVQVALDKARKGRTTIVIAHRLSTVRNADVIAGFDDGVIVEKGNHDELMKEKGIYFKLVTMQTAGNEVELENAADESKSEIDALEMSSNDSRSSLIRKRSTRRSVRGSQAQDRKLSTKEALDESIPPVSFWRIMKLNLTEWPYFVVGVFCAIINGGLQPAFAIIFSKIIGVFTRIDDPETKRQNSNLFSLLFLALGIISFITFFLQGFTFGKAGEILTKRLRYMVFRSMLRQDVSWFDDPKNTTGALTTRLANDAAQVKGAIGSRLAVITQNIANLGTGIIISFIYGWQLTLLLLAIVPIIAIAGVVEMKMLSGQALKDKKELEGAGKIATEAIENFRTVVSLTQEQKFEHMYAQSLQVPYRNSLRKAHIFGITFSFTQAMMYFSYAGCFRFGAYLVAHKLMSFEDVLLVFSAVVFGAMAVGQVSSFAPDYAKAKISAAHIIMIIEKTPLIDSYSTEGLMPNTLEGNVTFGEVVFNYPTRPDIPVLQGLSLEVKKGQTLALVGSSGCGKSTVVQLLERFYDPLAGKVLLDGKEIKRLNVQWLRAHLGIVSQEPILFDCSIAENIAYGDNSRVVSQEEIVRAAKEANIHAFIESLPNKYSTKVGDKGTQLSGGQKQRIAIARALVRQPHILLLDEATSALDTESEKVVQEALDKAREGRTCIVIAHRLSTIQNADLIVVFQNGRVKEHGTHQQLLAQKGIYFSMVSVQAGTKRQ
# T3 sequence (P08183 whole entry S893A): as above
# T4 sequence (P08183 whole entry): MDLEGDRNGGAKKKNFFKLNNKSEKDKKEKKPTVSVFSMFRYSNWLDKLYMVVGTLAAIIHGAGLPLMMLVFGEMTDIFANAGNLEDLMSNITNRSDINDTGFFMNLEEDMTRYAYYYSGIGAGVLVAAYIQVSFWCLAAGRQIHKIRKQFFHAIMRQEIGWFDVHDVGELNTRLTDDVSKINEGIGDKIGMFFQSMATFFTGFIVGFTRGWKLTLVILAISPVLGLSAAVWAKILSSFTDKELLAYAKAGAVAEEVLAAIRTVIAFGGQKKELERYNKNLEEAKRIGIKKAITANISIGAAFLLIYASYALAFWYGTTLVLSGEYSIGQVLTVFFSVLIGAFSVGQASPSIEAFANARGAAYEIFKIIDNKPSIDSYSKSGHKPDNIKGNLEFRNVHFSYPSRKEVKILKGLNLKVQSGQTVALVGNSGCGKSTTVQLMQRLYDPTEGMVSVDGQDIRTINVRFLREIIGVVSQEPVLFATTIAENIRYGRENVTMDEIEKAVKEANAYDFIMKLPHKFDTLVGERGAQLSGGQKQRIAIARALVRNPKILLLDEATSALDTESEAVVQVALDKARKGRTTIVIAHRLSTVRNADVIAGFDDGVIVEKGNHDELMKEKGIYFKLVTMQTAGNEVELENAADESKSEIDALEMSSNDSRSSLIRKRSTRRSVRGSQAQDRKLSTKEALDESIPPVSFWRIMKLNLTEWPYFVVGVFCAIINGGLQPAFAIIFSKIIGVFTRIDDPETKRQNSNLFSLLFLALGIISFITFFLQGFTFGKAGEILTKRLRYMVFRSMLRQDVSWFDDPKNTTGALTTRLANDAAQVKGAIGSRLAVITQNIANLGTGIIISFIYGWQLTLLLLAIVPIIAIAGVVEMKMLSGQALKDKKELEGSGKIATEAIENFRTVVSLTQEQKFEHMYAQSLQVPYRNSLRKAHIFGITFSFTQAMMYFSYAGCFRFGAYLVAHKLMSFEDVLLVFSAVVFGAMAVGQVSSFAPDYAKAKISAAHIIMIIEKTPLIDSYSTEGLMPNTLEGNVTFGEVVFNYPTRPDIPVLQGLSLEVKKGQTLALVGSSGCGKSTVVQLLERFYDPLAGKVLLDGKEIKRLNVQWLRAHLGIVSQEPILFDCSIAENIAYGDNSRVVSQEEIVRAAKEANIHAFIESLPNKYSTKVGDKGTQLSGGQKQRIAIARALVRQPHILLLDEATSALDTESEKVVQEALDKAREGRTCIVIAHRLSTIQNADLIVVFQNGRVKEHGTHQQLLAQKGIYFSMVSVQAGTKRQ
structure (smiles),measurement,setting,value
"COC(=O)c1ccccc1-c1c2ccc(=N)cc-2oc2cc(N)ccc12 [Rh123, Rhodamine123]",Rh123 intracellular fluorescence in cell lines overexpressing ABCB1 compared to HEKcontrol,"[1]; HEKWT, HEK1199A, HEKCGT and HEKTTT, without zosuquidar",significantly lower
O=C(NCc1c(F)cc(F)cc1F)c1cn2c(c(O)c1=O)C(=O)N1[C@H]3CC[C@H](C3)O[C@@H]1C2 [bictegravir],"bictegravir intracellular accumulation, HEKWT versus HEKcontrol","[2]; c.1199G > A experiments, protein-normalized, fold-change, Fig. 3",significantly lower
same,"bictegravir intracellular accumulation, HEKWT versus HEKcontrol","[2]; haplotype experiments, Fig. 4",significantly lower
same,difference of bictegravir intracellular accumulation between HEKWT and HEK1199A,[3],did not show any significant difference
same,"bictegravir intracellular accumulation, HEK1199A versus HEKcontrol","[3]; protein-normalized, fold-change",significantly lower
same,"bictegravir intracellular accumulation, HEKCGT versus HEKcontrol",[4],significantly lower
same,"difference of bictegravir intracellular accumulation, HEKWT vs HEKCGT",[4],did not show any significant difference
same,"bictegravir intracellular accumulation, HEKTTT versus HEKcontrol",[5],significantly lower
same,"difference of bictegravir intracellular accumulation, HEKCGT vs HEKTTT",[6],did not show any significant difference
same,"difference of bictegravir intracellular accumulation, HEKWT vs HEKTTT",[6],did not show any significant difference
same,"change of bictegravir intracellular accumulation in the presence of zosuquidar, HEK1199G cells",[7],significant increase
same,biopharmaceutical classification system class,[8],class II
same,solubility (biopharmaceutical classification system),[8],low solubility
same,permeability (biopharmaceutical classification system),[9],high permeability
same,transepithelial permeability,[9],High
same,transport by ABCB1,ABCB1,active transport
same,oral bioavailability,[10],high
same,ratios of cerebrospinal fluid over plasma bictegravir concentrations,[11],low
same,plasma protein binding,[12],high
same,accumulation into human peripheral blood mononuclear cells,[13],limited
Cc1nc(Nc2ncc(C(=O)Nc3c(C)cccc3Cl)s2)cc(N2CCN(CCO)CC2)n1 [dasatinib],effect of c.1199G > A variant on transport,[14],affect the transport
C[C@@H]1CCO[C@H]2Cn3cc(C(=O)NCc4ccc(F)cc4F)c(=O)c(O)c3C(=O)N12 [dolutegravir],intracellular accumulation in PBMCs compared to bictegravir,PBMCs,higher
Cc1ccc(NC(=O)c2ccc(CN3CCN(C)CC3)cc2)cc1Nc1nccc(-c2cccnc2)n1 [imatinib],"impact of c.1236C > T, c.2677G > T and c.3435C > T variants on anti-proliferative activity",[15],more pronounced effect
Cc1cn(-c2cc(NC(=O)c3ccc(C)c(Nc4nccc(-c5cccnc5)n4)c3)cc(C(F)(F)F)c2)cn1 [nilotinib],effect of c.1199G > A variant on transport,[14],affect the transport
C=CC[C@@H]1/C=C(\C)C[C@H](C)C[C@H](OC)[C@H]2O[C@@](O)(C(=O)C(=O)N3CCCC[C@H]3C(=O)O[C@H](/C(C)=C/[C@@H]3CC[C@@H](O)[C@H](OC)C3)[C@H](C)[C@@H](O)CC1=O)[C@H](C)C[C@@H]2OC [tacrolimus],impact of c.1199G > A variant on intracellular accumulation,[14]; same cellular model,significant impact
"O[C@@H](COc1cccc2ncccc12)CN1CCN([C@@H]2c3ccccc3[C@@H]3[C@H](c4ccccc42)C3(F)F)CC1 [zosuquidar, zosuquidar hydrochloride]","Rh123 intracellular fluorescence after pre-incubation with zosuquidar, cell lines overexpressing ABCB1",[1]; [16],increased to a level close to the level measured for HEKcontrol
same,effect of the inhibitor on Rh123 fluorescence in the HEKcontrol batch used for haplotype functional characterization,[1]; [16],small but significant effect
